# Results as given in US20240209028A1, “CNP COMPOUNDS” (priority 2022, published 2024).
# Starred links: 1 amine or outer side, 2 acyl side, 3 side chain; linkers in the order of their positions; H or OH if unused. Positions of bridges follow the written chain, without caps; N, C: chain ends. Residues, ends and D or L forms follow the SMILES beside them. *: point of attachment. C18 diacid = O=C(O)CCCCCCCCCCCCCCCCC(=O)*; γGlu = O=C(O)[C@H](CCC(=O)[*:2])N[*:1]; AEEA = NCCOCCOCC(=O)O
# Biological target: T1, human natriuretic peptide receptor 2 (hNPR2) (Homo sapiens, UniProt P20594)
# T1 construct: expressed in transfected cells; host or cells: HEK293 (ATCC CRL-1573), clone 35, co-transfected with pGloSensor-42F
# T1 sequence (P20594 23-1047): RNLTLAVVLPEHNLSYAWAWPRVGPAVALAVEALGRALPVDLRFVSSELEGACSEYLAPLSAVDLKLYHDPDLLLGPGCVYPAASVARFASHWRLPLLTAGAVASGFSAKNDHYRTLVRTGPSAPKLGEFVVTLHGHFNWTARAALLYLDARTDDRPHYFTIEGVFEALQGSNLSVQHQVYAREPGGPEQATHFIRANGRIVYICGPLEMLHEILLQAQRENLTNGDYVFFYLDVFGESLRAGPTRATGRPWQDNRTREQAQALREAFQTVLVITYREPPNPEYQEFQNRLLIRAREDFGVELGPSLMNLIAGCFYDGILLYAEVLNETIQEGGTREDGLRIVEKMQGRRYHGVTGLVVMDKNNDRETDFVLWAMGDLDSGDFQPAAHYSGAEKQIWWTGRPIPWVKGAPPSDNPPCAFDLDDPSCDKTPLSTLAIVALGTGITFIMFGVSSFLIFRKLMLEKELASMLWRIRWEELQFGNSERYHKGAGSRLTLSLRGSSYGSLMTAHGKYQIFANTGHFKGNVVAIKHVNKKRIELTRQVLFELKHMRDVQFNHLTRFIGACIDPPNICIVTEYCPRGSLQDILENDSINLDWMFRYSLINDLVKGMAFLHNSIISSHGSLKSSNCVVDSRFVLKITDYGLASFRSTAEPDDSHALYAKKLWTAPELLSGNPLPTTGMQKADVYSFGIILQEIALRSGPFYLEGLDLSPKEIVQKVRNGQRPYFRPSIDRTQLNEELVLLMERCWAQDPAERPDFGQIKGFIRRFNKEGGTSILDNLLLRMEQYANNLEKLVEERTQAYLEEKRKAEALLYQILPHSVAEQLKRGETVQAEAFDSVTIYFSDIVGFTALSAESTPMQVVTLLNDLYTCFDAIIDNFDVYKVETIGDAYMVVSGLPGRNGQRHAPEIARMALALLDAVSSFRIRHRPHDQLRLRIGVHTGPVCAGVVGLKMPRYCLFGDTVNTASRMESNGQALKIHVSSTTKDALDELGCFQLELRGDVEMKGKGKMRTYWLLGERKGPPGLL
# Experiment: In vitro hNPR2 activity assay (cGMP GloSensor reporter, HEK293)
# Type: cell-based
# Conditions: 0% HSA; HEK293-hNPR2/GloSensor cells
# Method in brief: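 Potency is the EC50 from a four-parameter logistic fit, also expressed relative to the in-plate CNP22 control (×100), with at least two replicates. Compounds (ten concentrations, […], HSA-free diluent with 1% OVA, 0.01% Tween20) were incubated 30 min at 37 °C on HEK293 cells co-expressing hNPR2 and a GloSensor cGMP luciferase. Luminescence detected with Bright-Glo.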
row,SMILES,EC50 [nM]
1,CC[C@H](C)[C@@H]1NC(=O)[C@H](CCCNC(=N)N)NC(=O)[C@H](CC(=O)O)NC(=O)[C@H](CC(C)C)NC(=O)[C@H](CCCCN)NC(=O)[C@H](CC(C)C)NC(=O)CNC(=O)[C@H](Cc2ccccc2)NC(=O)[C@@H](NC(=O)CNC(=O)[C@H](CCC(N)=O)NC(=O)[C@H](CO)NC(=O)[C@H](CC(C)C)NC(=O)CNC(=O)[C@H](CCCCN)NC(=O)[C@H](CCCCN)NC(=O)[C@H](CCC(N)=O)NC(=O)[C@H](C)NC(=O)CNC(=O)[C@H](CCCCN)NC(=O)[C@H](Cc2ccc(O)cc2)NC(=O)[C@H](CCCCN)NC(=O)[C@H](CCCNC(=N)N)NC(=O)[C@H](C)NC(=O)COCCOCCNC(=O)COCCOCCNC(=O)COCCOCCNC(=O)COCCOCCNC(=O)CC[C@H](NC(=O)CC[C@H](NC(=O)CC[C@H](NC(=O)CC[C@H](NC(=O)CC[C@H](NC(=O)CCCCCCCCCCCCCCCCC(=O)O)C(=O)O)C(=O)O)C(=O)O)C(=O)O)C(=O)O)CSSC[C@@H](C(=O)O)NC(=O)CNC(=O)[C@H](CC(C)C)NC(=O)CNC(=O)[C@H](CO)NC(=O)[C@H](CC(C)C)NC(=O)[C@H](CO)NC(=O)CNC1=O [compound 1463] ({C18 diacid-γGlu-γGlu-γGlu-γGlu-γGlu-AEEA-AEEA-AEEA-AEEA}-ARKYKGAQKKGLSQGCFGLKLDRIGSLSGLGC-OH; disulfide 16-32),0.3

# Same assay, conditions: potency relative to CNP22 (0065)
row,SMILES,hNPR2 0% HSA. [EC50% rel CNP] [%]
1,CC[C@H](C)[C@@H]1NC(=O)[C@H](CCCNC(=N)N)NC(=O)[C@H](CC(=O)O)NC(=O)[C@H](CC(C)C)NC(=O)[C@H](CCCCN)NC(=O)[C@H](CC(C)C)NC(=O)CNC(=O)[C@H](Cc2ccccc2)NC(=O)[C@@H](NC(=O)CNC(=O)[C@H](CCC(N)=O)NC(=O)[C@H](CO)NC(=O)[C@H](CC(C)C)NC(=O)CNC(=O)[C@H](CCCCN)NC(=O)[C@H](CCCCN)NC(=O)[C@H](CCC(N)=O)NC(=O)[C@H](C)NC(=O)CNC(=O)[C@H](CCCCN)NC(=O)[C@H](Cc2ccc(O)cc2)NC(=O)[C@H](CCCCN)NC(=O)[C@H](CCCNC(=N)N)NC(=O)[C@H](C)NC(=O)COCCOCCNC(=O)COCCOCCNC(=O)COCCOCCNC(=O)COCCOCCNC(=O)CC[C@H](NC(=O)CC[C@H](NC(=O)CC[C@H](NC(=O)CC[C@H](NC(=O)CC[C@H](NC(=O)CCCCCCCCCCCCCCCCC(=O)O)C(=O)O)C(=O)O)C(=O)O)C(=O)O)C(=O)O)CSSC[C@@H](C(=O)O)NC(=O)CNC(=O)[C@H](CC(C)C)NC(=O)CNC(=O)[C@H](CO)NC(=O)[C@H](CC(C)C)NC(=O)[C@H](CO)NC(=O)CNC1=O [compound 1463] ({C18 diacid-γGlu-γGlu-γGlu-γGlu-γGlu-AEEA-AEEA-AEEA-AEEA}-ARKYKGAQKKGLSQGCFGLKLDRIGSLSGLGC-OH; disulfide 16-32),20.0
2,CC[C@H](C)[C@@H]1NC(=O)[C@H](CCCNC(=N)N)NC(=O)[C@H](CC(=O)O)NC(=O)[C@H](CC(C)C)NC(=O)[C@@H]2CCCN2C(=O)[C@H](CC(C)C)NC(=O)CNC(=O)[C@H](Cc2ccccc2)NC(=O)[C@@H](NC(=O)CNC(=O)[C@H](CCC(N)=O)NC(=O)[C@H](CO)NC(=O)[C@H](CC(C)C)NC(=O)CNC(=O)[C@H](CCCCN)NC(=O)[C@H](CCCCN)NC(=O)[C@H](CC(N)=O)NC(=O)[C@H](C)NC(=O)CNC(=O)[C@H](CCCCN)NC(=O)[C@H](Cc2ccc(O)cc2)NC(=O)[C@H](CCCCN)NC(=O)[C@H](CCCNC(=N)N)NC(=O)[C@H](C)NC(=O)COCCOCCNC(=O)COCCOCCNC(=O)COCCOCCNC(=O)COCCOCCNC(=O)CC[C@H](NC(=O)CC[C@H](NC(=O)CC[C@H](NC(=O)CC[C@H](NC(=O)CC[C@H](NC(=O)CCCCCCCCCCCCCCCCC(=O)O)C(=O)O)C(=O)O)C(=O)O)C(=O)O)C(=O)O)CSSC[C@@H](C(=O)O)NC(=O)CNC(=O)[C@H](CC(C)C)NC(=O)CNC(=O)[C@H](CO)NC(=O)[C@H](CC(C)C)NC(=O)[C@H](CO)NC(=O)CNC1=O [compound 1464] ({C18 diacid-γGlu-γGlu-γGlu-γGlu-γGlu-AEEA-AEEA-AEEA-AEEA}-ARKYKGANKKGLSQGCFGLPLDRIGSLSGLGC-OH; disulfide 16-32; C-terminus assumed),48.8
3,CC[C@H](C)[C@@H]1NC(=O)[C@H](CCCNC(=N)N)NC(=O)[C@H](CC(=O)O)NC(=O)[C@H](CC(C)C)NC(=O)[C@@H]2CCCN2C(=O)[C@H](CC(C)C)NC(=O)CNC(=O)[C@H](Cc2ccccc2)NC(=O)[C@@H](NC(=O)CNC(=O)[C@H](CCC(N)=O)NC(=O)[C@H](CO)NC(=O)[C@H](CC(C)C)NC(=O)CNC(=O)[C@H](CCCCN)NC(=O)[C@H](CCCCN)NC(=O)[C@H](CCC(N)=O)NC(=O)[C@H](C)NC(=O)CNC(=O)[C@H](CCCCN)NC(=O)[C@H](Cc2ccc(O)cc2)NC(=O)[C@H](CCCCN)NC(=O)[C@H](CCCNC(=N)N)NC(=O)[C@H](C)NC(=O)COCCOCCNC(=O)COCCOCCNC(=O)COCCOCCNC(=O)COCCOCCNC(=O)CC[C@H](NC(=O)CC[C@H](NC(=O)CC[C@H](NC(=O)CC[C@H](NC(=O)CC[C@H](NC(=O)CCCCCCCCCCCCCCCCC(=O)O)C(=O)O)C(=O)O)C(=O)O)C(=O)O)C(=O)O)CSSC[C@@H](C(=O)O)NC(=O)CNC(=O)[C@H](CC(C)C)NC(=O)CNC(=O)[C@H](CO)NC(=O)[C@H](CCSC)NC(=O)[C@H](CO)NC(=O)CNC1=O [compound 1465] ({C18 diacid-γGlu-γGlu-γGlu-γGlu-γGlu-AEEA-AEEA-AEEA-AEEA}-ARKYKGAQKKGLSQGCFGLPLDRIGSMSGLGC-OH; disulfide 16-32),24.0
4,CC[C@H](C)[C@@H]1NC(=O)[C@H](CCCNC(=N)N)NC(=O)[C@H](CC(=O)O)NC(=O)[C@H](CC(C)C)NC(=O)[C@@H]2CCCN2C(=O)[C@H](CC(C)C)NC(=O)CNC(=O)[C@H](Cc2ccccc2)NC(=O)[C@@H](NC(=O)CNC(=O)[C@H](CCC(N)=O)NC(=O)[C@H](CO)NC(=O)[C@H](CC(C)C)NC(=O)CNC(=O)[C@H](CCCCN)NC(=O)[C@H](CCCCN)NC(=O)[C@H](CCC(N)=O)NC(=O)[C@H](C)NC(=O)CNC(=O)[C@H](CCCCN)NC(=O)[C@H](Cc2ccc(O)cc2)NC(=O)[C@H](CCCCN)NC(=O)[C@H](CCCNC(=N)N)NC(=O)[C@H](C)NC(=O)[C@H](CCC(N)=O)NC(=O)[C@@H]2CCCN2C(=O)[C@H](Cc2c[nH]cn2)NC(=O)[C@H](CCC(=O)O)NC(=O)[C@H](CCC(N)=O)NC(=O)COCCOCCNC(=O)COCCOCCNC(=O)CC[C@H](NC(=O)CC[C@H](NC(=O)CC[C@H](NC(=O)CC[C@H](NC(=O)CC[C@H](NC(=O)CCCCCCCCCCCCCCCCC(=O)O)C(=O)O)C(=O)O)C(=O)O)C(=O)O)C(=O)O)CSSC[C@@H](C(=O)O)NC(=O)CNC(=O)[C@H](CC(C)C)NC(=O)CNC(=O)[C@H](CO)NC(=O)[C@H](CC(C)C)NC(=O)[C@H](CO)NC(=O)CNC1=O [compound 1471] ({C18 diacid-γGlu-γGlu-γGlu-γGlu-γGlu-AEEA-AEEA}-QEHPQARKYKGAQKKGLSQGCFGLPLDRIGSLSGLGC-OH; disulfide 21-37),40.2
5,CC[C@H](C)[C@@H]1NC(=O)[C@H](CCCNC(=N)N)NC(=O)[C@H](CC(=O)O)NC(=O)[C@H](CC(C)C)NC(=O)[C@@H]2CCCN2C(=O)[C@H](CC(C)C)NC(=O)CNC(=O)[C@H](Cc2ccccc2)NC(=O)[C@@H](NC(=O)CNC(=O)[C@H](CCC(N)=O)NC(=O)[C@H](CO)NC(=O)[C@H](CC(C)C)NC(=O)CNC(=O)[C@H](CCCCN)NC(=O)[C@H](CCCCN)NC(=O)[C@H](CCC(N)=O)NC(=O)[C@H](C)NC(=O)CNC(=O)[C@H](CCCCN)NC(=O)[C@H](Cc2ccc(O)cc2)NC(=O)[C@H](CCCCN)NC(=O)[C@H](CCCNC(=N)N)NC(=O)[C@H](C)NC(=O)[C@H](CCC(N)=O)NC(=O)[C@@H]2CCCN2C(=O)[C@H](Cc2c[nH]cn2)NC(=O)[C@H](CCC(=O)O)NC(=O)[C@H](CCC(N)=O)NC(=O)COCCOCCNC(=O)COCCOCCNC(=O)CC[C@H](NC(=O)CC[C@H](NC(=O)CC[C@H](NC(=O)CC[C@H](NC(=O)CCCCCCCCCCCCCCCCC(=O)O)C(=O)O)C(=O)O)C(=O)O)C(=O)O)CSSC[C@@H](C(=O)O)NC(=O)CNC(=O)[C@H](CC(C)C)NC(=O)CNC(=O)[C@H](CO)NC(=O)[C@H](CC(C)C)NC(=O)[C@H](CO)NC(=O)CNC1=O [compound 1472] ({C18 diacid-γGlu-γGlu-γGlu-γGlu-AEEA-AEEA}-QEHPQARKYKGAQKKGLSQGCFGLPLDRIGSLSGLGC-OH; disulfide 21-37; C-terminus assumed),52.0
